Structures can show the parent of a compound that is named as a salt.
Experiments:
Shay rat ulcers = test: Effect on Shay rat ulcers (pylorus-ligated); format: in vivo, Male SD-strain rats; conditions: 17 h
Experimental: Male SD-strain rats (6 to 7 weeks old) were starved for 48 hours and then the pylori were ligated. Immediately after ligation, a solution or suspension of a test compound in distilled water was administered orally into the stomachs in an amount of 0.2 ml per 100 g of body weight (Dose: 200 or 300 mg/kg). Seventeen hours after the administration of the test compound, the degree of ulceration in forestomach was examined according to the method of Takagi et al (Chem. Pharm. Bull., 11(10), pp. 1282-1290 (1963)) with a modified scoring system. Depending on the diameter of each lesions, the ulcers were classified into the following 4 grades. Ulcer index was calculated by the sum of the number of ulcers in each degree multiplied by respective ulcer score. Further, based on the ulcer index determined above, the preventive effect of the test compound on Shay rat ulcer was calculated by the following formula: [formula] (Results)

human gastric ulcer = conditions: in words, numerous clinical trials; cited from earlier work
[1] = system: mineralo-corticoid- or aldosterone-like effect; conditions: in vivo; cited from earlier work
[2] = system: experimentally-induced gastric ulceration; conditions: in words, known; cited from earlier work
urinary electrolytes [3] = test: Effect on urine volume and urinary electrolytes (Experiment 7); format: in vivo, Male SD-strain rats; conditions: 50 mg/kg oral
Experimental: Male SD-strain rats (6 to 7 weeks old) were starved overnight, and a physiological saline solution (3 ml/100 g of body weight) was orally administered to the rats. One hour later, a solution or suspension of a test compound in a 0.25% CMC-physiological saline solution was administered orally to the rats in an amount of 3 ml per 100 g of body weight (Dose: 50 and 500 mg/kg). Immediately after administration of the test compound, the rats were placed into metabolic cages (2 rats per cage) and deprived of water and food for 5 hours. The urine samples which were excreted during a 5 hour period were collected. Sodium and potassium in the urine were estimated by a flame photometer (Hitachi Model-205).

urinary electrolytes [4] = test: Effect on urinary electrolytes (Experiment 8); format: in vivo, Male SD-strain rats; conditions: for Urine volume: 4 h, control 5.7 ± 0.6; for Na/K ratio: 4 h urine, control 6.1 ± 0.3
Experimental: Male SD-strain rats (6 to 7 weeks old, one group: 5-8 rats) were starved overnight, and a physiological saline solution (3 ml/100 g of body weight) was orally administered to the rats. One hour later, a solution of a test compound in a 0.25% CMC-physiological saline solution was administered orally to the rats in an amount of 3 ml per 100 g of body weight (Dose: 50, 500 or 1,000 mg/kg). Immediately after administration of the test compound, the rats were placed into metabolic cages (one rat per cage) and deprived of water and food for 4 hours. The urine samples which were excreted during a 4 hour period were collected. Sodium and potassium in the urine were estimated by a flame photometer (Hitachi Model-205).

stress-induced ulcers = test: Effect on stress-induced ulcers; format: in vivo, Male ddY-strain mice; conditions: 100 mg/kg oral, 16 h water immersion
Experimental: Male ddY-strain mice (4 weeks old) weighing about 20 g were starved for about 7 hours. A solution of a test compound in distilled water was administered orally to the mice in an amount of 0.1 ml per 10 g of body weight (Dose: 100 mg/kg). Immediately after administration of the test compound, the mice were placed in a stress cage and immersed to the level of the cervix in a water bath (24±0.5° C.) for 16 hours. Then, the stomach was removed and slightly inflated by injecting 1.2 ml of a 1% formalin solution to fix the inner layers of the gastric walls. The stomach was then incised along the greater carvature, and the number of ulcerations was examined.

gastric acid secretion = test: Preventive effect on gastric acid secretion in pylorus-ligated rats; format: in vivo, Male SD-strain rats; conditions: 100 mg/kg oral, 5 h after administration, hydrate
Experimental: (§1) Preventive effect on acid and pepsin secretions
(§2) Male SD-strain rats (6 to 7 weeks old) were starved for 48 hours, and then the pylori were ligated. Immediately after ligation, a solution or suspension of a test compound in distilled water was administered orally into the stomachs in an amount of 0.2 ml per 100 g of body weight (Dose: 100 mg/kg). Five hours after said administration of the test compound, the rats were sacrificed and the stomachs were removed. The gastric contents were centrifuged at 2,500 rpm for 10 minutes and the gastric juice was collected as the supernatant. The concentration of pepsin in the gastric juice was determined by Anson's method (c.f., J. Gen. Physiol., 22, pp. 77-89 (1938)) using hemoglobin as the substrate, and the preventive effect of the test compound on the pepsin secretion was estimated in terms of "decrease in pepsin concentration" according to the following formula: [formula]
On the other hand, the concentration of free acid in the gastric juice was determined by titrating said gastric juice to pH 7.0 with 0.1N NaOH, and the preventive effect of the test compound on the gastric acid secretion was estimated in terms of "the decrease in acidity of gastric juice" according to the following formula: [formula] (Results)

rats = test: Acute oral toxicity in rats (Experiment 10); format: in vivo; conditions: male SD-strain rats, 7 days, hydrate, 10080 min
Experimental: After male SD-strain rats (6-7 weeks old) were starved for 20 hours, a solution or suspension of a test compound in distilled water was administered orally to the rats in an amount of one ml per 100 g of body weight. After administration of the test compound, the rats were allowed free access to water and food.

pepsin secretion = test: Preventive effect on pepsin secretion in pylorus-ligated rats; format: in vivo, Male SD-strain rats; conditions: 100 mg/kg oral, 5 h after administration, hydrate
Experimental: as §1, §2

gastric mucus secretion = test: Effect on gastric mucus secretion (alcian blue binding); format: in vivo, Male Sprague-Dawley rats; conditions: 100 mg/kg oral, 1 h, hydrate
Experimental: Stimulating effect of a test compound on gastric mucus secretion was examined by the method of Corne et al. (J. Physiol., 242, pp. 116-117(1974); J. Pharm. Pharmacol., 33, pp. 348-352(1981)). Male Sprague-Dawley rats (6-7 weeks old; one group: 6 rats) were fasted for 20 hours before the experiments. Water was given ad libitum and coprophagy was prevented by using cages with wide-mesh floors. A test compound dissolved or suspended in distilled water was administered orally to the rats at a dose of 100 mg/kg. One hour after the administration of the test compound, the stomachs were dissected, opened along the greater curvature, rinsed in ice-cold 0.25M sucrose, and the rumen was discarded. Then, the stomachs were incubated in 10 ml of a 0.15M sucrose-0.05M sodium acetate solution (pH 5.8) containing alcian blue (1 mg/ml), at room temperature for 1.5 hours. Finally, the stomachs were placed in 15 ml of a 0.5M magnesium chloride solution for 2 hours with occasional shaking and then removed, and the magnesium chloride solution was shaken briefly with 10 ml of diethyl ether. The optical density of the aqueous layer was read at 605 nm, and the degree of alcian blue binding was expressed as μg alcian blue/g of tissue. The stimulating effect of the test compound on gastric mucus secretion was estimated in terms of "the increase in alcian blue binding" which was calculated by the following formula: [formula] (Results)

aspirin-induced ulcers = test: Effect on aspirin-induced ulcers; format: in vivo, Male Donryu-strain rats; conditions: p.o. 2 m mol./kg (847 mg/kg); aspirin 200 mg/kg
Experimental: Male Donryu-strain rats (8 to 9 weeks old) were starved overnight, and a solution or suspension of a test compound in distilled water was administered orally into the stomachs in an amount of one ml per 100 g of body weight. Half an hour later, a suspension of aspirin in 0.25% CMC solution was administered orally to the rats in an amount of 0.5 ml per 100 g of body weight (Dose: 200 mg/kg). Four hours after the administration of aspirin, the rats were sacrificed and the stomachs were removed and inflated by injecting 10 ml of 1% formalin solution to fix the inner layers of the gastric walls. The stomach was then incised along the greater curvature and the lengths of the lesions were measured and summated to give ulcer index (in mm) for each animal. The preventive effect of the test compound on aspirin-induced ulcers were calculated by the following formula: [formula] (Results)

gastric mucous membrane = test: Protective effect on gastric mucous membrane (excised stomach in artificial gastric juice); parameters: species or system Male Sprague-Dawley rats; conditions: 37° C., 60 min, hydrate; for Amount of tyrosine: control 2.42 ± 0.15
Experimental: Protective effect of a test compound on gastric mucous membrane was examined by the method of Diago et al. (Yakugaku Zasshi, 101, 452-457(1981)). Male Sprague-Dawley rats (6-7 weeks old; one group: 5 rats) were fasted for 20 hours before the experiments. Water was given ad libitum and coprophagy was prevented by using cages with wide-mesh floors. The stomach was excised, opened along the greater curvature, rinsed in physiological saline solution, and the rumen was discarded. The stomach was incubated in 10 ml of an artificial gastric juice (100 mM HCl, 0.3% pepsin, 0.2% NaCl) containing a test compound, at 37° C. for 60 minutes. After the incubation, 2 ml of 7% trichloroacetic acid were added to 0.5 ml of medium, and the mixture was centrifuged. The amount of tyrosine in the supernatant was measured by using Folin-Ciocelteu reagent (J. gen. Physiol., 16, 59-63(1932)), and expressed as mg tyrosine/g tissue. The protective effect of the test compound on gastric mucous membrane was estimated in terms of "the inhibition of digestion of mucous membrane" which was calculated by the following formula: [formula] (Results)

[5] = 1 mg/ml in artificial gastric juice
[6] = 4 mg/ml in artificial gastric juice

CC1(C)[C@@H](OC(=O)CCC(=O)O)CC[C@]2(C)[C@H]3C(=O)C=C4[C@@H]5C[C@@](C)(C(=O)O)CC[C@]5(C)CC[C@@]4(C)[C@]3(C)CC[C@@H]12 [Carbenoxolone disodium salt, 3-β-hydroxy-11-oxoolean-12-en-30-oic acid hydrogen succinate, reference compound]
Preventive effect on Shay rat ulcers (Shay rat ulcers; 300 mg/kg oral): 40% | gastric anti-ulcer effect in human gastric ulcer patients (human gastric ulcer): effective gastric anti-ulcer agent | aldosterone-like side effect [1]: has an aldosterone-like side effect | protection from experimentally-induced gastric ulceration [2]: known to protect animals from experimentally-induced gastric ulceration | Urine volume (urinary electrolytes [3]; 5 h, 2 rats per cage, control 12.3): 9.3 mL | Na/K (urinary electrolytes [3]; 5 h urine, control 5.8): 3.2 | Urine volume (urinary electrolytes [4]; 50 mg/kg p.o.): 5.2 ± 0.3 mL | Na/K ratio (urinary electrolytes [4]; 50 mg/kg p.o., * = significantly different (p < 0.01) from control): 3.7 ± 0.3

CC(C)c1cc2c(cc1S(=O)(=O)O)[C@@]1(C)CCC[C@@](C)(C(=O)O)[C@@H]1CC2 [Sulfodehydroabietic acid disodium salt, 1,4a-dimethyl-1-carboxy-6-sulfo-7-isopropyl-1,2,3,4,4a,9,10,10a-octahydro-phenanthrene disodium salt 81/2 hydrate]
decrease in the number of stress-induced ulcers (stress-induced ulcers): 22% | Preventive effect on Shay rat ulcers (Shay rat ulcers; 200 mg/kg oral, hydrate): 93% | Decrease (%) in acidity of gastric juice (gastric acid secretion): 54% | LD50 (rats): > 2000 mg/kg | Decrease (%) in pepsin concentration (pepsin secretion): 92% | Alcian blue binding (gastric mucus secretion; control (water) 198.5 ± 6.4): 247.7 ± 18.4 μg/g tissue | Increase (%) in alcian blue binding (gastric mucus secretion): 25% | Preventive effect on aspirin-induced ulcers (aspirin-induced ulcers): 82% | Amount of tyrosine (gastric mucous membrane; [5]): 1.64 ± 0.12 mg/g tissue | Inhibition (%) of digestion of mucous membrane (gastric mucous membrane; [5]): 32% | Amount of tyrosine (gastric mucous membrane; [6]): 0.82 ± 0.07 mg/g tissue | Inhibition (%) of digestion of mucous membrane (gastric mucous membrane; [6]): 66% | Urine volume (urinary electrolytes [4]; 500 mg/kg p.o.): 4.8 ± 0.4 mL | Na/K ratio (urinary electrolytes [4]; 500 mg/kg p.o.): 7.4 ± 1.0 | Urine volume (urinary electrolytes [4]; 1000 mg/kg p.o.): 4.3 ± 0.3 mL | Na/K ratio (urinary electrolytes [4]; 1000 mg/kg p.o.): 5.9 ± 0.4

Reference: patent US4529602A, “Method for treatment or prophylaxis of gastro-intestinal disease” (priority 1981, dated 1985)
